The record followed here is patent US9115149B2, “Heterocyclic compounds as inhibitors of fatty acid biosysnthesis for bacterial infections” (Vitas Pharma Research Private Limited, priority 2011, dated 2015).

Converted amounts (≈) assume the structure as drawn. Read-outs that look alike come from different tables or passages of the source. A value given as a limit tells only on which side of the number the result lay.

The subject of series [1] is Bacillus subtilis (ΔFabI, ΔFabL; Pxylose SaFabI). Put plainly: Target specificity: MIC in B. subtilis expressing S. aureus FabI under xylose inducible promoter. The series is classed as cell-based. The method, then: To test for target specificity, the MIC was determined in a Bacillus subtilis strain in which the two FabI homologues (FabI and FabL) were deleted and replaced with S. aureus FabI (Sa FabI) under a Xylose inducible promoter. By varying the amount of xylose in the growth medium, the expression of FabI was proportionately modified. Compounds specifically targeting Sa FabI show an increased MIC when higher amounts of FabI are present in the cell (high Xylose concentrations). In contrast, when FabI levels are low, the cell becomes hypersusceptible, reducing the MIC (low Xylose concentrations). […] Shown below are data for target specificity.

For series [2], the system named is Staphylococcus aureus (ATCC29213). Put plainly: MIC by microbroth dilution, methicillin sensitive S. aureus. The conditions noted are these: read-out: Minimum inhibitory concentration (MIC) Staphylococcus aureus (ATCC29213). The class given is cell-based. The protocol: (§1) Shown below are the biological activities of representative compounds of the invention. The compounds were tested by the microbroth dilution method (National committee for Clinical Laboratory Standards, M07-A8, Volume 29, 2009) to determine the Minimum Inhibitory Concentration (MIC) against Methicillin sensitive and resistant Staphylococcus aureus. The MICs in the presence of 10% BSA was also tested. Further, select compounds were tested for metabolic stability using mouse liver microsomes based on published protocols (Journal of Biological Sciences, 2008, 8, 1110-1114).
In general terms: Broth dilution looks for growth in wells or tubes with falling amounts of substance.

Series [3] has as its system Methicillin resistant Staphylococcus aureus (ATCC 33591). As to the kind of experiment: MIC by microbroth dilution, methicillin resistant S. aureus. The series is classed as cell-based. The settings on record: ATCC33591, read-out: Minimum inhibitory concentration (MIC) Methicillin resistant Staphylococcus aureus (ATCC 33591). The method, then: as §1
Series [4] shares this test system. As to the kind of experiment: MIC in the presence of BSA. The settings on record: ATCC33591, 10% BSA. The class given is cell-based. The method, then: as §1
The nature of series [5]: Metabolic stability in mouse liver microsomes. The series is classed as in vitro ADME. The protocol: as §1
The nature of series [6]: Pharmacokinetic profile in male Swiss albino mice. The settings on record: mouse, in vivo. The protocol:
The following compounds were dosed to male Swiss albino mice to determine the pharmacokinetic profiles.

Setting [7] is: read-out: MIC in the presence of 0.005% Xylose (low Xylose concentration).
[8] abbreviates: read-out: MIC in the presence of 0.5% Xylose (high Xylose concentration).
[9] abbreviates: intravenous single dose 5 mg/kg body weight.

In the case of `CN(Cc1cc2ccccc2n1C)C(=O)/C=C/c1cnc2[nH]c(=O)n(C)c2c1` [VT-02-00043, (E)-N-Methyl-N-(1-methyl-1H-indol-2-ylmethyl)-3-(1-methyl-2-oxo-2,3-dihydro-1H-imidazo[4,5-b]pyridin-6-yl)-acrylamide], the MIC came to 7.8 ng/mL in series [1] (setting [7]), 30 ng/mL in series [1] (setting [8]), 4 µg/mL (≈ 10.7 µM) in series [2] and 8 µg/mL (≈ 21.3 µM) in series [3].

Regarding `CN(Cc1cc2ccccc2n1C)C(=O)/C=C/c1cnc2[nH]c(=O)oc2c1` [VT-02-00058, (E)-N-methyl-N-((1-methyl-1H-indol-2-yl)methyl)-3-(2-oxo-2,3-dihydrooxazolo[4,5-b]pyridin-6-yl)acrylamide], the MIC in series [2] and in series [3] was more than 16 µg/mL each time.

For the molecule `CN(Cc1cc2ccccc2n1C)C(=O)/C=C/c1cnc2[nH]c(=O)[nH]c2c1` [VT-02-00002, (E)-N-methyl-N-((1-methyl-1H-indol-2-yl)methyl)-3-(2-oxo-2,3-dihydro-1H-imidazo[4,5-b]pyridin-6-yl)acrylamide], the MIC in series [1] (setting [7]) was 60 ng/mL; in series [1] (setting [8]), 1000 ng/mL; in series [2] it was 1 µg/mL (≈ 2.77 µM); in series [3], 2 µg/mL (≈ 5.53 µM).

Turning to `CN(Cc1cc2ccccc2s1)C(=O)/C=C/c1cnc2c(c1)C(C)(C)C(=O)N2` [VT-02-00066, (E)-N-(benzo[b]thiophen-2-ylmethyl)-3-(3,3-dimethyl-2-oxo-2,3-dihydro-1H-pyrrolo[2,3-b]pyridin-5-yl)-N-methylacrylamide], the MIC amounted to 4 µg/mL in series [4]; 7.8 ng/mL in series [1] (setting [7]); 1000 ng/mL in series [1] (setting [8]); 0.5 µg/mL (≈ 1.28 µM) in series [2]; 0.5 µg/mL (≈ 1.28 µM) in series [3]. The “Metabolic stability (mouse liver microsomes) % of compound remaining after 30 minutes” value in series [5] came to 29%.

Take `CN(Cc1cc2ccccc2n1C)C(=O)/C=C/c1ccc2[nH]c3ncccc3c2c1` [VT-02-00034a, (E)-N-methyl-N-((1-methyl-1H-indol-2-yl)methyl)-3-(9H-pyrido[2,3-b]indol-6-yl)acrylamide]: the MIC in series [2] and in series [3] was more than 32 µg/mL each time.

Take `CN(Cc1cc2ccccc2n1C)C(=O)/C=C/c1cnc2[nH]nc(N)c2c1` [VT-02-00029a, (E)-3-(3-amino-1H-pyrazolo[3,4-b]pyridin-5-yl)-N-methyl-N-((1-methyl-1H-indol-2-yl)methyl)acrylamide]: the MIC in series [1] (setting [7]) was determined as 30 ng/mL; in series [1] (setting [8]), 500 ng/mL; in series [2], 1 µg/mL (≈ 2.77 µM); in series [3], 2 µg/mL (≈ 5.55 µM).

Regarding `CN(Cc1cc2ccccc2n1C)C(=O)/C=C/c1cnc2c(c1)CC(=O)N2` [VT-02-00050, (E)-N-methyl-N-((1-methyl-1H-indol-2-yl)methyl)-3-(2-oxo-2,3-dihydro-1H-pyrrolo[2,3-b]pyridin-5-yl)acrylamide], the MIC in series [2] and in series [3] was 2 µg/mL (≈ 5.55 µM) throughout.

Regarding `CN(Cc1cn(C)c2ccccc12)C(=O)/C=C/c1ccc2c(c1)C1(CCC1)C(=O)N2` [VT-02-00085, (E)-N-methyl-N-((1-methyl-1H-indol-3-yl)methyl)-3-(2′-oxospiro[cyclobutane-1,3′-indoline]-5′-yl)acrylamide], the MIC was determined as 1 µg/mL in series [4]; 0.97 ng/mL in series [1] (setting [7]); 60 ng/mL in series [1] (setting [8]); 0.06 µg/mL (≈ 0.15 µM) in series [2]; 0.06 µg/mL (≈ 0.15 µM) in series [3]. The “Metabolic stability (mouse liver microsomes) % of compound remaining after 30 minutes” value in series [5] was 33%.

With `CN(Cc1cc2ccccc2n1C)C(=O)/C=C/c1cnc2[nH]c3ccccc3c2c1` [VT-02-00034, (E)-N-methyl-N-((1-methyl-1H-indol-2-yl)methyl)-3-(9H-pyrido[2,3-b]indol-3-yl)acrylamide], the MIC in series [2] and in series [3] was more than 64 µg/mL in each case.

For `CN1CCC(Nc2n[nH]c3ncc(/C=C/C(=O)N(C)Cc4cc5ccccc5n4C)cc23)CC1` [VT-02-00037, (E)-N-methyl-N-((1-methyl-1H-indol-2-yl)methyl)-3-(3-(1-methylpiperidin-4-ylamino)-1H-pyrazolo[3,4-b]pyridin-5-yl)acrylamide], the MIC in series [2] and in series [3] was more than 32 µg/mL in each case.

For orientation: AUC means the area under the concentration-time curve, a measure of exposure. Lower therefore signals low exposure. The term Cmax denotes the peak of the concentration-time curve. One may read the clearance as the volume of plasma or blood freed of the substance per unit of time. Lower therefore signals a low capacity for elimination. What is called half-life is how long it takes for the measured level to halve. Low readings indicate rapid decline, high ones slow decline. For orientation: bioavailability means the share of a dose that reaches the circulation, judged against a reference dose that is usually intravenous. The low end stands for little systemic uptake, the high end for much systemic uptake. On to `CN(Cc1cc2ccccc2n1C)C(=O)/C=C/c1cnc2[nH]nc(N(C)C)c2c1` [VT-02-00039, (E)-3-(3-Dimethylamino-1H-pyrazolo[3,4-b]pyridin-5-yl)-N-methyl-N-(1-methyl-1H-indol-2-ylmethyl)-acrylamide], for which, in series [1] (setting [7]), the MIC stood at 60 ng/mL. Moreover, the MIC in series [1] (setting [8]) was found to be 1000 ng/mL. Moreover, the MIC in series [2] amounted to 2 µg/mL (≈ 5.15 µM). In addition, the MIC in series [3] came to 2 µg/mL (≈ 5.15 µM). The “Metabolic stability (mouse liver microsomes) % of compound remaining after 30 minutes” value in series [5] is recorded as 46%. In series [6] (setting [9]), this molecule had an AUC of 908 ng·h/mL, a Cmax of 868 ng/mL, a clearance of 91.5 mL/min/kg and a half-life of 46.2 min. Besides, the bioavailability in series [6] (po) was 19%.

`CN(Cc1cc2ccccc2n1C)C(=O)/C=C/c1cnc2[nH]cnc2c1` [VT-02-00060, (E)-3-(3H-imidazo[4,5-b]pyridin-6-yl)-N-methyl-N-((1-methyl-1H-indol-2-yl)methyl)acrylamide]: the MIC in series [2] and in series [3] was more than 16 µg/mL in each case.

Consider `CNc1n[nH]c2ncc(/C=C/C(=O)N(C)Cc3cc4ccccc4n3C)cc12` [VT-02-00036, (E)-N-Methyl-3-(3-methylamino-1H-pyrazolo[3,4-b]pyridin-5-yl)-N-(1-methyl-1H-indol-2-ylmethyl)-acrylamide], for which the MIC turned out to be 500 ng/mL in series [1] (setting [7]), 2000 ng/mL in series [1] (setting [8]), 8 µg/mL (≈ 21.4 µM) in series [2] and 8 µg/mL (≈ 21.4 µM) in series [3].

Turning to `Cn1c2c(c3ccccc31)CN(C(=O)/C=C/c1cnc3c(c1)C1(CCC1)C(=O)N3)CC2` [VT-02-00082, (E)-5′-(3-(5-methyl-3,4-dihydro-1H-pyrido[4,3-b]indol-2(5H)-yl)-3-oxoprop-1-enyl)spiro[cyclobutane-1,3′-pyrrolo[2,3-b]pyridin]-2′(1′H)-one], the MIC in series [2] and in series [3] was more than 8 µg/mL in each case.

For `CN(Cc1cc2ccccc2n1C)C(=O)/C=C/c1cnc2c(c1)C1(CCC1)C(=O)N2` [VT-02-00070, (E)-N-methyl-N-((1-methyl-1H-indol-2-yl)methyl)-3-(2′-oxo-1′,2′-dihydrospiro[cyclobutane-1,3′-pyrrolo[2,3-b]pyridine]-5′-yl)acrylamide], the MIC in series [4] was 2 µg/mL; in series [1] (setting [7]) it was less than 0.000119 ng/mL; in series [1] (setting [8]), 7.8 ng/mL; in series [2] it was 0.5 µg/mL (≈ 1.25 µM); in series [3], 0.5 µg/mL (≈ 1.25 µM). Further, in series [5], the “Metabolic stability (mouse liver microsomes) % of compound remaining after 30 minutes” value came out at 45%.

As for `CCNc1n[nH]c2ncc(/C=C/C(=O)N(C)Cc3cc4ccccc4n3C)cc12` [VT-02-00038, (E)-3-(3-(ethylamino)-1H-pyrazolo[3,4-b]pyridin-5-yl)-N-methyl-N-((1-methyl-1H-indol-2-yl)methyl)acrylamide], the MIC in series [2] and in series [3] was more than 32 µg/mL throughout.

In the case of `CCn1c(=O)[nH]c2ncc(/C=C/C(=O)N(C)Cc3nc4ccccc4s3)cc21` [VT-02-00054, (E)-N-(benzo[d]thiazol-2-ylmethyl)-3-(1-ethyl-2-oxo-2,3-dihydro-1H-imidazo[4,5-b]pyridin-6-yl)-N-methylacrylamide], the MIC in series [2] and in series [3] was more than 16 µg/mL in each case.

Turning to `CN(Cc1cc2ccccc2n1C)C(=O)/C=C/c1cnc2c(c1)C(C)(C)C(=O)N2` [VT-02-00055, (E)-3-(3,3-dimethyl-2-oxo-2,3-dihydro-1H-pyrrolo[2,3-b]pyridin-5-yl)-N-methyl-N-((1-methyl-1H-indol-2-yl)methyl)acrylamide], the MIC in series [4] stood at 2 µg/mL; in series [1] (setting [7]) it was 60 ng/mL; in series [1] (setting [8]) it was 2000 ng/mL; in series [2] it was 0.25 µg/mL (≈ 0.644 µM); in series [3] it was 0.25 µg/mL (≈ 0.644 µM). Further, the “Metabolic stability (mouse liver microsomes) % of compound remaining after 30 minutes” value in series [5] was found to be 40.3%.

As to `COc1n[nH]c2ncc(/C=C/C(=O)N(C)Cc3cc4ccccc4n3C)cc12` [VT-02-00046, (E)-3-(3-Methoxy-1H-pyrazolo[3,4-b]pyridin-5-yl)-N-methyl-N-(1-methyl-1H-indol-2-ylmethyl)-acrylamide], the MIC in series [1] (setting [7]) is more than 32000 ng/mL; in series [1] (setting [8]), more than 32000 ng/mL; in series [2], more than 32 µg/mL; in series [3], more than 32 µg/mL.

On to `CN(Cc1cc2ccccc2n1C)C(=O)/C=C/c1cnc2[nH]ncc2c1` [VT-02-00032, (E)-N-Methyl-N-(1-methyl-1H-indol-2-ylmethyl)-3-(1H-pyrazolo[3,4-b]pyridin-5-yl)-acrylamide], for which the MIC was 125 ng/mL in series [1] (setting [7]), 4000 ng/mL in series [1] (setting [8]), 4 µg/mL (≈ 11.6 µM) in series [2] and 4 µg/mL (≈ 11.6 µM) in series [3].

Turning to `CCn1c(=O)[nH]c2ncc(/C=C/C(=O)N(C)Cc3cc4ccccc4s3)cc21` [VT-02-00049, (E)-N-(benzo[b]thiophen-2-ylmethyl)-3-(1-ethyl-2-oxo-2,3-dihydro-1H-imidazo[4,5-b]pyridin-6-yl)-N-methylacrylamide], the MIC in series [1] (setting [7]) was 0.48 ng/mL; in series [1] (setting [8]) it was 31 ng/mL; in series [2], 0.5 µg/mL (≈ 1.27 µM); in series [3], 0.5 µg/mL (≈ 1.27 µM). In series [5], the “Metabolic stability (mouse liver microsomes) % of compound remaining after 30 minutes” value amounted to 44%.
